Test results from patent US20130184302A1, “METHODS FOR TREATING IRRITABLE BOWEL SYNDROME (IBS) AND INFECTIONS” (priority 2011, published 2013).
Read-outs that look alike come from different tables or passages of the source.

Tests used:
[1] = system: C. difficile infection (CDI); assay: CDI trial: efficacy adjusting for concomitant medication usage; type: in vivo, human
Source text: Table 48 sets forth the efficacy adjusting for concomitant medication usage.

[2] = system: C. difficile infection (CDI); assay: CDI trial: subgroup analysis of diarrhea at TOC; type: in vivo, human; conditions: for Diarrhea, number of subjects / Diarrhea, percent of subjects / No Diarrhea, number of subjects / No Diarrhea, percent of subjects: at TOC; for Diarrhea at TOC: Treatment Difference: Rifaximin vs Vancomycin
Source text: Tables 42 and 43 set forth a subgroup analysis of diarrhea at TOC.

IBS patients = conditions: cited from earlier work
[3] = system: patients with diarrhea-predominant IBS; assay: Tolerability, adverse events, rifaximin 550 mg BID study; type: in vivo, human; conditions: rifaximin 550 mg BID 14 days
[4] = Rifaximin N = 109, Vancomycin N = 112
[5] = Rifaximin N = 117, Vancomycin N = 115
[6] = subgroup Age <65, Rifaximin N = 69, Vancomycin N = 62
[7] = subgroup Age >=65, Rifaximin N = 39, Vancomycin N = 49
[8] = subgroup Female, Rifaximin N = 68, Vancomycin N = 64
[9] = subgroup Male, Rifaximin N = 40, Vancomycin N = 47
[10] = Pimentel, et al., responders/treated
[11] = Yang, et al, responders/treated

CO[C@H]1/C=C/O[C@@]2(C)Oc3c(C)c(O)c4c(O)c(c5c(nc6cc(C)ccn65)c4c3C2=O)NC(=O)/C(C)=C\C=C\[C@H](C)[C@H](O)[C@@H](C)[C@@H](O)[C@@H](C)[C@H](OC(C)=O)[C@@H]1C [Rifaximin, (2S,16Z,18E,20S,21S,22R, 23R,24R,25S,26S,27S,28E)-5,6,21,23,25 Pentahydroxy-27-methoxy-2,4,11,16,20,22,24,26-octamethyl-2,7-(epoxypentadeca-(1,11,13)trienimino) benzofuro (4,5-e) pyrido(1,2,-a) benzimidazole-1,15(2H)-dione,25-acetate]
Diarrhea: No, number of subjects [1, 4]: 71 | Diarrhea: No, percent of subjects [1, 4]: (65%) | Diarrhea: Yes, number of subjects [1, 4]: 38 | Diarrhea: Yes, percent of subjects [1, 4]: (35%) | Clinical Success: No, number of subjects [1, 5]: 59 | Clinical Success: No, percent of subjects [1, 5]: (50%) | Clinical Success: Yes, number of subjects [1, 5]: 58 | Clinical Success: Yes, percent of subjects [1, 5]: (50%) | Clinical Success: Treatment Difference ([1]; Rifaximin vs Vancomycin): −10.4% | Diarrhea: Treatment Difference ([1]; Rifaximin vs Vancomycin): −8.1% | Diarrhea, number of subjects [2, 6]: 16 | Diarrhea, percent of subjects [2, 6]: (23%) | No Diarrhea, number of subjects [2, 6]: 53 | No Diarrhea, percent of subjects [2, 6]: (77%) | Diarrhea, number of subjects [2, 7]: 6 | Diarrhea, percent of subjects [2, 7]: (15%) | No Diarrhea, number of subjects [2, 7]: 33 | No Diarrhea, percent of subjects [2, 7]: (85%) | Diarrhea, number of subjects [2, 8]: 14 | Diarrhea, percent of subjects [2, 8]: (21%) | No Diarrhea, number of subjects [2, 8]: 54 | No Diarrhea, percent of subjects [2, 8]: (79%) | Diarrhea, number of subjects [2, 9]: 8 | Diarrhea, percent of subjects [2, 9]: (20%) | No Diarrhea, number of subjects [2, 9]: 32 | No Diarrhea, percent of subjects [2, 9]: (80%) | Diarrhea at TOC: Treatment Difference ([2]; subgroup Age <65): −3.8% | Diarrhea at TOC: Treatment Difference ([2]; subgroup Age >=65): 3.0% | Diarrhea at TOC: Treatment Difference ([2]; subgroup Female): −3.4% | Diarrhea at TOC: Treatment Difference ([2]; subgroup Male): 1.3% | Initial treatment response (IBS patients; Jolley, IBS-D patients, 1200 mg/day for 10 days): Initial treatment response: 56% (25/45) | Re-treatment response (at least 1) (IBS patients; Jolley, IBS-D patients, 2400 mg/day for 10 days): Re-treatment response (at least 1): 54% | Complete (>90%) relief (IBS patients; Jolley, IBS-D patients): Complete (>90%) relief: 11% (5/45) | Complete (>90%) relief upon re-treatment (IBS patients; Jolley, IBS-D patients): re-treatment: 13% (3/24) | Re-treatment response (at least 1) (IBS patients; Pimentel, et al., 1 to 6 re-treatments): > 75% | Initial treatment response (IBS patients; Pimentel, et al., 169 Non-C IBS Patients (Rome III), 400-550 mg TID for 14 days): Initial treatment response: 75% | Duration of benefit (IBS patients; Pimentel, et al.): Duration of benefit is ~4 m | Re-treatment response, First (IBS patients; [10]): 54/65 | Re-treatment response, Second (IBS patients; [10]): 38/40 | Re-treatment response, Third (IBS patients; [10]): 17/18 | Initial treatment response (IBS patients; Weinstock, 99 Non-C IBS Patients (Rome II), 1200-1650 mg/day for 10 days): Initial treatment response: 75% (74/99) | Patients who did not require retreatment (IBS patients; Weinstock): 27% did not require retreatment | Patients with only 12 retreatment in 2 y (IBS patients; Weinstock): 51% only 12 retreatment in 2 y | Patients who maintained response (IBS patients; Weinstock, for mean 1.6 y): 41% | Mean time response was maintained (IBS patients; Weinstock, in the 41% who maintained response): 1.6 y | Re-treatment response (at least 1) (IBS patients; Yang, et al, 1200 mg/day for 10 days): 100% | Initial treatment response (IBS patients; Yang, et al, 84 IBS Patients (Rome I), 1200 mg/day for 10 days): Initial treatment response: 69% (58/84) | Re-treatment response, First (IBS patients; [11]): 16/16 | Re-treatment response, Second (IBS patients; [11]): 4/4 | Tolerability, incidence of adverse events compared with placebo [3]: well tolerated
